In patent publication US20230226109A1, “METHOD FOR DIFFERENTIATING INNATE LYMPHOID CELLS FOR IMMUNOTHERAPY” (The Board of Trustees of the Leland Stanford Junior …, priority 2019, published 2023):

Tests used:
peripheral NK cells [1] = test: in vitro differentiation of peripheral NK cells into ielLC1-like cells, co-culture with epithelial feeder cells; type: cell-based, human
Method: (A) Protocol for in vitro differentiation of peripheral NK cells into ielLC1-like cells. In brief, PCI13 cells were seeded into a culture plate, then peripheral NK cells were sorted and added to the culture (ratio 10NK:1PCI13) in the presence or not of IL15 (10 ng/mL). After 4 days of co-culture, NK cells were harvested for phenotypic and functional analysis. (B, LEFT) Dot plots show the expression of CD49a and CD103 on gated Lin^−CD45^+CD56^+ NK cells, after culture of NK with PCI13 and IL15 (10 ng/mL) or control conditions. […] (C-D) Functional response of in vitro differentiated ielLC1-like cells. […] (D) After in vitro differentiation, CD49a^− and CD49a^+ cells were sorted and mixed with PCI13 (10^6 NK cells:5.10^6 PCI13) and injected subcutaneously in the flank of NSG mice. Then, tumor volume was measured over time. […] (E) Sorted CD49a^+ and CD49a^− NK cells were assessed for expression of NR4A1, NR4A2, and NR4A3 by qRT-PCR.
In a summary of the protocol for in vitro differentiation of peripheral conventional NK cells into ielLC1-like cells: sorted, enriched, or expanded peripheral NK cells in the presence of IL15 are seeded into culture with cells such as HNSCC, which may be irradiated, or onto plate surfaces that mimic select attributes of these cells. After a suitable period of time for culture, e.g. about 4 days, the differentiated cells are harvested for analysis and effector functions.
• HNSCC cells were harvested from their culture, washed with PBS and counted. • HNSCC cells were then resuspended in media for co-culture, and seeded into plates as follows:
• NK were resuspended with media containing IL-15. • NK cells were added to the co-culture as follows:
• On day 2, half of the supernatant was replaced with fresh media containing IL-15 (20 ng/mL). Harvesting and use of ielLC1-Like Cells. • On day 4, ILC1-like cells were harvested. • Note: The harvested cells were ielLC1-like cells. HNSCC cells were killed during the culture. • ILC1-like cells were washed with PBS and counted. • ILC1-like cells were then used for phenotypic analysis and functional assays.

peripheral NK cells [2] = test: in vivo differentiation of peripheral NK cells injected intra-tumor into PCI13 tumors; parameters: species or system NSG mice; details: IL15 5 μg/mouse every 2 days, tumors harvested after 6 days
Method: (A) Protocol used to evaluate the in vivo differentiation of peripheral NK cells into ILC1-like cells. In brief, 10^6 PCI13 were subcutaneously injected in the flank of NSG mice, after 10-15 days (when the tumor were palpable) peripheral NK cells were obtained from blood and were injected intra-tumor. Mice were treated or not with IL15 (5 μg/mouse) every 2 days. After 6 days, tumors were harvested and the phenotype and function of intra-tumoral NK cells were assessed. (B) According to the protocol described in (A), sorted Lin^−CD56^+ NK cells were intra-tumor injected. […] (C-D) According to the protocol described in (A), sorted Lin^−CD56^+CD94^+CD16^− Stage 4b NK cells were intra-tumor injected. (C, LEFT) Dot plots show the expression of CD49a and CD103 on NK cells obtained following intra-tumor injection of sorted stage 4b NK cells, in the presence or not of IL15 in vivo. […]
10^6 PCI13 tumor cells were subcutaneously injected in the flank of NSG mice, after 10-15 days (when the tumor were palpable) peripheral NK cells were obtained from blood and were injected intra-tumor. […] After 6 days, tumors were harvested and the phenotype and function of intra-tumoral NK cells were assessed.

NK cells = test: feeder cell-free culture of NK cells, differentiation into ielLC1-like cells; type: cell-based, human; details: culture plates with or without E-Cadherin coating, NK cells with IL-15, no feeder cells
Excerpt: FIG. 7: Co-culture of peripheral NK cells with IL-15 and TGFbeta enhances differentiation into ielLC1-like cells. (A) Using a co-culture system similar to FIG. 5A, NK cells were co-cultured with MDCK (top) or PCI-13 (bottom) in the presence of IL-15 and either the TGFbeta receptor 2 inhibitor ITD1 or the ALK receptor inhibitor SB-431542 or TGFb.
FIG. 11: Feeder cell-free culture of NK cells with extracellular matrix components can induce ielLC1-like cell differentiation. Culture plates with or without E-Cadherin coating was used to culture NK cells with IL-15.

[3] = NK cells with IL-15 and PCI-13 carcinoma cells
[4] = NK cells co-cultured with MDCK or PCI-13 in the presence of IL-15

`Cc1ccccc1N=Nc1ccc(NC(=O)c2ccnn2C)c(C)c1` [CH-223191] was tested, and the ielLC1-like cell differentiation (peripheral NK cells [1]; [3]) was “profound reduction of ielLC1-like differentiation”.

`O=Cc1c2[nH]c3ccccc3c2cc2[nH]c3ccccc3c12` [FICZ] was tested, and the ielLC1-like cell differentiation (peripheral NK cells [1]; [3]) was “promoted the ielLC1-like differentiation”.

`CCOC(=O)C1=C(C)NC2=C(C(=O)CC(C)(C)C2)C1c1ccc(-c2ccccc2)cc1` (centres unmarked) [ITD1] was tested, and the ielLC1-like cell differentiation (peripheral NK cells [1]; [4]) was “significant inhibition of ielLC1-like cell differentiation”.

With `NC(=O)c1ccc(-c2nc(-c3ccc4c(c3)OCO4)c(-c3ccccn3)[nH]2)cc1` [SB-431542] the ielLC1-like cell differentiation (peripheral NK cells [1]; [4]) was “significant inhibition of ielLC1-like cell differentiation”.

“IL-15: 14-15 kDa glycoprotein cytokine (BioLegend; Cat #570306)” was tested, and the “differentiation of peripheral NK into ielLC1-like cells (CD49a+, CD49a+CD103+)” value (peripheral NK cells [1]; NK with PCI13 (ratio 10NK:1PCI13), IL15 10 ng/mL, 4 days) was “promotes differentiation of peripheral NK into ielLC1-like cells” and the “differentiation of peripheral NK into ielLC1-like cells in vivo” value (peripheral NK cells [2]) was “promotes differentiation of peripheral NK into ielLC1-like cells in vivo”.

For TGFb, the ielLC1-like cell differentiation (peripheral NK cells [1]; [4]) was “stimulation of the ielLC1-like phenotype”.

B1: E-Cadherin: coating of culture plates, extracellular matrix component, used without feeder cells (protein, UniProt P12830 155-882, looked up)
Cadherin-1: DWVIPPISCPENEKGPFPKNLVQIKSNKDKEGKVFYSITGQGADTPPVGVFIIERETGWLKVTEPLDRERIATYTLFSHAVSSNGNAVEDPMEILITVTDQNDNKPEFTQEVFKGSVMEGALPGTSVMEVTATDADDDVNTYNAAIAYTILSQDPELPDKNMFTINRNTGVISVVTTGLDRESFPTYTLVVQAADLQGEGLSTTATAVITVTDTNDNPPIFNPTTYKGQVPENEANVVITTLKVTDADAPNTPAWEAVYTILNDDGGQFVVTTNPVNNDGILKTAKGLDFEAKQQYILHVAVTNVVPFEVSLTTSTATVTVDVLDVNEAPIFVPPEKRVEVSEDFGVGQEITSYTAQEPDTFMEQKITYRIWRDTANWLEINPDTGAISTRAELDREDFEHVKNSTYTALIIATDNGSPVATGTGTLLLILSDVNDNAPIPEPRTIFFCERNPKPQVINIIDADLPPNTSPFTAELTHGASANWTIQYNDPTQESIILKPKMALEVGDYKINLKLMDNQNKDQVTTLEVSVCDCEGAAGVCRKAQPVEAGLQIPAILGILGGILALLILILLLLLFLRRRAVVKEPLLPPEDDTRDNVYYYDEEGGGEEDQDFDLSQLHRGLDARPEVTRNDVAPTLMSVPRYLPRPANPDEIGNFIDENLKAADTDPTAPPYDSLLVFDYEGSGSEAASLSSLNSSESDKDQDYDYLNEWGNRFKKLADMYGGGEDD
In the case of B1, the “formation of ielLC1-like cells” value (NK cells) is reported as “enhanced formation of the ielLC1-like cells”.
